Reference: ChEMBL document CHEMBL5537110, “SIRT1-dependent mitochondrial biogenesis supports therapeutic effects of 4-butyl-polyhydroxybenzophenone compounds against NAFLD” (Eur J Med Chem, 2023)
Active and inactive are the calls of the source. The calls are words filed in the database; no cut-off is given here.

Key:
EA.hy 926 [1] = assay: Cytoprotective activity against H2O2-induced toxicity in human EA.hy 926 cells assessed as protective rate at 10 uM pretreated with compound for 4 hrs followed by incubation with H2O2 for 2 hrs by absorbance based analysis; assay type: functional; details: time 6 hrs
EA.hy 926 [2] = assay: Cytoprotective activity against H2O2-induced toxicity in human EA.hy 926 cells assessed as protective rate pretreated with compound for 4 hrs followed by incubation with H2O2 for 2 hrs by absorbance based analysis; assay type: functional, cell-based
[3] = molecular target: T1, NAD-dependent protein deacetylase sirtuin-1 (Homo sapiens) (UniProt Q96EB6); assay: Binding affinity to SIRT1 (unknown origin) by surface plasmon resonance assay; details: filed as activator
T1 sequence (whole entry): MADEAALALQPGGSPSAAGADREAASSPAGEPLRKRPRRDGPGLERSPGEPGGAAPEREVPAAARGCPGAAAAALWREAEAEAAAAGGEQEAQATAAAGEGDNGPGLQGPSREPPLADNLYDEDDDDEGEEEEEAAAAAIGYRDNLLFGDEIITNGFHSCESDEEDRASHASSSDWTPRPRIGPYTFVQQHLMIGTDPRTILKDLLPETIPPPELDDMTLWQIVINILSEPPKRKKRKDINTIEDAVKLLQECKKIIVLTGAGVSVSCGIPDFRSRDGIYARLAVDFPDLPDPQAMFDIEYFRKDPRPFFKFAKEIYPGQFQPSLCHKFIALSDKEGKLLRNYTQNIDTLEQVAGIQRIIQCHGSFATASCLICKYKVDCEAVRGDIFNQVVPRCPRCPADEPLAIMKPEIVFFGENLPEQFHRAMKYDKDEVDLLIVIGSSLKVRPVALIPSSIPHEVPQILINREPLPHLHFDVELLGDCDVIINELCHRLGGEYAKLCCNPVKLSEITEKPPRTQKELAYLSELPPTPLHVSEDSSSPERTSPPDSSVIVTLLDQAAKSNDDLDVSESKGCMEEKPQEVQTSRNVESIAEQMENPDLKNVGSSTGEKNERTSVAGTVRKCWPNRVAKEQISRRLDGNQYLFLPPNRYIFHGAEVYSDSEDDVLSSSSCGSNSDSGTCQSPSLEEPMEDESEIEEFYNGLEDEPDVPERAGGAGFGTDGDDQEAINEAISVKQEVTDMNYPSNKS

[4] = molecular target: T2, Peroxisome proliferator-activated receptor gamma coactivator 1-alpha (Homo sapiens) (UniProt Q9UBK2); assay: Binding affinity to PGC1alpha (unknown origin) by surface plasmon resonance assay; details: filed as activator
T2 sequence (whole entry): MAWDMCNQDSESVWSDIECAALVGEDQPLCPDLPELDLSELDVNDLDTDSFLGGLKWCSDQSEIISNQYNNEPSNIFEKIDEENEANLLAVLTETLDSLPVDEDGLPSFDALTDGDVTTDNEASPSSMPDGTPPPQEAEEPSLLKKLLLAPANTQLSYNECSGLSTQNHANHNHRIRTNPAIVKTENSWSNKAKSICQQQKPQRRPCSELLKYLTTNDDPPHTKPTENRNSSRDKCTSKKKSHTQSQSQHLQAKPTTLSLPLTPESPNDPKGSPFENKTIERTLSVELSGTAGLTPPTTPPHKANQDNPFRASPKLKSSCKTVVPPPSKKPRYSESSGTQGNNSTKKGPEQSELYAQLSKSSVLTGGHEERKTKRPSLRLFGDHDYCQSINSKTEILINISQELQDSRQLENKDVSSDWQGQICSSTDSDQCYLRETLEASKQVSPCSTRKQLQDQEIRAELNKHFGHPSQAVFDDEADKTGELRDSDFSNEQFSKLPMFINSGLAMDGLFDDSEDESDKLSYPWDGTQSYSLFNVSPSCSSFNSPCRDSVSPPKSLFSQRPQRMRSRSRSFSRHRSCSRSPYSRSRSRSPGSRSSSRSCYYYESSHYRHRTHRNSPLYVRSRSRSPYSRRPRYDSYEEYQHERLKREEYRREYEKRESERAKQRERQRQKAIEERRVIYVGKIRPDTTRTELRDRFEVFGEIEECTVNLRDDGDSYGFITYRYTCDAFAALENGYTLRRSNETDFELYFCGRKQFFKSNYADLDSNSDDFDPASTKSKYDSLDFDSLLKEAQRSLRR

Activity [3]	Activity [4]	Structure (SMILES)	Activity (EA.hy 926 [1]) [%]	EC50 (EA.hy 926 [2]) [µM]
–	–	CCCCc1ccc(C(=O)c2ccc(O)c(C)c2O)cc1	2.8	–
–	–	CC(C)(C)c1ccc(C(=O)c2c(O)cc(O)cc2Cl)cc1	-49	–
Active	Active	CC(C)Cc1ccc(C(=O)c2cc(O)c(O)cc2F)cc1	93.75	0.0808
–	–	CCCCc1ccc(C(=O)c2c(O)cc(O)cc2Cl)cc1	38.47	–
–	–	CCCCc1ccc(C(=O)c2ccc(O)c(O)c2O)cc1	64.71	–
–	–	CCCCc1ccc(C(=O)c2cc(O)c(Cl)cc2O)cc1	21.66	–
–	–	COc1cc(O)cc(Cl)c1C(=O)c1ccc(CC(C)C)cc1	2.99	–
–	–	CCCCc1ccc(C(=O)c2cc(O)c(O)cc2F)cc1	58.82	–
–	–	CC(C)(C)c1ccc(C(=O)c2cc(O)ccc2O)cc1	-7	–
–	–	CCCCc1ccc(C(=O)c2c(Cl)cc(O)cc2OC)cc1	11.76	–
Active	Active	CC(C)(C)c1ccc(C(=O)c2cc(O)c(O)cc2F)cc1	80.56	0.104
–	–	CCCCc1ccc(C(=O)c2cc(O)ccc2O)cc1	39.03	–
–	–	CC(C)(C)c1ccc(C(=O)c2c(O)cc(O)cc2O)cc1	-64	–
–	–	CC(C)Cc1ccc(C(=O)c2cc(O)ccc2O)cc1	8.96	–
Active	Active	CC(C)Cc1ccc(C(=O)c2ccc(O)c(O)c2O)cc1	93.75	0.118
–	–	CC(C)(C)c1ccc(C(=O)c2cc(O)c(Cl)cc2O)cc1	-67	–
–	–	Cc1c(O)ccc(C(=O)c2ccc(C(C)(C)C)cc2)c1O	-67.36	–
–	–	Cc1c(O)ccc(C(=O)c2ccc(CC(C)C)cc2)c1O	17.37	–
–	–	CC(C)Cc1ccc(C(=O)c2cc(O)c(Cl)cc2O)cc1	-3.92	–
–	–	CC(C)Cc1ccc(C(=O)c2c(O)cc(O)cc2Cl)cc1	-8.4	–
–	–	O=c1c(O)c(-c2ccc(O)c(O)c2)oc2cc(O)cc(O)c12 [QUERCETIN]	55.2	2.67
Active	Active	CCCCc1ccc(C(=O)c2ccc(O)c(O)c2)cc1	70.59	0.0842
–	–	CCCCc1ccc(C(=O)c2c(O)cc(O)cc2O)cc1	36.04	–
–	–	COc1cc(O)cc(Cl)c1C(=O)c1ccc(C(C)(C)C)cc1	-64	–
Active	Active	CC(C)Cc1ccc(C(=O)c2ccc(O)c(O)c2)cc1	93.75	0.081
–	–	CC(C)(C)c1ccc(C(=O)c2ccc(O)c(O)c2O)cc1	-6.9	–
–	–	CC(C)Cc1ccc(C(=O)c2c(O)cc(O)cc2O)cc1	21.63	–
